Earlier results as cited in US20120289611A1, “PECTIN COMPOUNDS, METHODS OF USING PECTIN COMPOUNDS, AND METHODS OF CONTROLLING WATER SOLUBILITY” (priority 2009, published 2012).
In brackets after ≈: the same amount, converted by molar mass. Entries after “also recorded” stand apart in the source; their conditions may differ. Counter-ions that a name gives are not always drawn.

Conditions: in water (where stated)
In the case of COc1ccccc1OCCNCC(O)COc1cccc2[nH]c3ccccc3c12 (centres unmarked) [Carvedilol], the solubility is given as 0.583 µg/mL (≈ 1.43 µM).
In the case of CN(C)CCCC1(c2ccc(F)cc2)OCc2cc(C#N)ccc21 (centres unmarked) [Citalopram Hydrobromide], the solubility is listed as 31 µg/mL.
For COC(=O)[C@H](c1ccccc1Cl)N1CCc2sccc2C1 [Clopidogrel bisulphate], the solubility is given as 50.78 µg/mL.
For CCC(=O)O[C@]1(C(=O)SCF)[C@H](C)C[C@H]2[C@@H]3C[C@H](F)C4=CC(=O)C=C[C@]4(C)[C@@]3(F)[C@@H](O)C[C@@]21C [Fluticasone propionate], the solubility is given as 0.51 µg/mL (≈ 1.02 µM).
In the case of Cc1c(OCC(F)(F)F)ccnc1C[S+]([O-])c1nc2ccccc2[nH]1 (centres unmarked) [Lansoprazole], the solubility is given as 0.97 µg/mL (≈ 2.63 µM).
In the case of CCCCc1nc(Cl)c(CO)n1Cc1ccc(-c2ccccc2-c2nn[nH]n2)cc1 [Losartan], the solubility is given as 0.82 µg/mL (≈ 1.94 µM).
For CCCCc1nc(Cl)c(CO)n1Cc1ccc(-c2ccccc2-c2nnn[n-]2)cc1.[K+] [potassium losartan], the solubility is given as 0.82 µg/mL.

Same assay, conditions: organic solvent named in the value; hydrochloride
For CCc1ccc(CCOc2ccc(CC3SC(=O)NC3=O)cc2)nc1 (centres unmarked) [Pioglitazone hydrochloride], the “solubility in words, other solvents” value is listed as “slightly soluble in anhydrous ethanol; also recorded: very slightly soluble in acetone and acetonitrile; also recorded: insoluble in ether”.

Same assay, conditions: water, or solvent not stated
In the case of COc1ccc2nc([S@@+]([O-])Cc3ncc(C)c(OC)c3C)[nH]c2c1 [Esomeprazole], the solubility in words is listed as “very slightly soluble in water”.
For C[C@@H]1C[C@H]2[C@@H]3CCC4=CC(=O)C=C[C@]4(C)[C@@]3(Cl)[C@@H](O)C[C@]2(C)[C@@]1(OC(=O)c1ccco1)C(=O)CCl [Mometasone furoate], the solubility in words is listed as “practically insoluble”.
For Cc1cc2c(s1)Nc1ccccc1N=C2N1CCN(C)CC1 [Olanzapine], the solubility in words is listed as “practically insoluble in water”.
In the case of CCc1ccc(CCOc2ccc(CC3SC(=O)NC3=O)cc2)nc1 (centres unmarked) [Pioglitazone hydrochloride], the solubility in words is given as “practically insoluble in water”.
For CCCc1nc2c(C)cc(-c3nc4ccccc4n3C)cc2n1Cc1ccc(-c2ccccc2C(=O)O)cc1 [Telmisartan], the solubility in words is listed as “practically insoluble”.
For O=P(O)(O)C(O)(Cn1ccnc1)P(=O)(O)O [Zoledronic acid monohydrate], the solubility in words is listed as “sparingly soluble”.
